Test results taken from US11272841B2, “Indicator fluids, systems, and methods for assessing movement of substances within, to or from a cerebrospinal fluid, brain or spinal cord compartment of a cranio-spinal cavity of a human” (BRAINWIDESOLUTIONS AS, priority 2017, dated 2022).
Marks after values point to notes of the source that are not given here.

Experiment: Repeated standardized T1-weighted MRI: signal units (SU) in ROIs of CSF, venous space and brain tissue after intrathecal gadobutrol, iNPH versus reference patients (Tables 2-4, FIG. 14b, 16)
Assay type: in vivo, human
Protocol: The different features of Aspect 2 are based on novel in-vivo observations in humans. […] In the following paragraphs, these novel observations in humans are commented on in more detail. In these studies, the MRI contrast agent gadobutrol served as indicator fluid and MRI SUs were indication signals. MRI T1 weighted signal units were measured when gadobutrol was present within CSF after having been administered to the CSF compartment, and were compared with MR images having identical sequence parameter settings and with no gadobutrol present in CSF. […] With a MW of 605 Da, gadobutrol is a rather large molecule in comparison to the MW of water (H2O) molecule, which is 18 Da. Clearance of gadobutrol is then indicative of clearance of other substances with similar properties.
We explored both movement of the contrast agent within, to, and from the cranio-spinal cavity, including CSF, brain and spinal cord compartment, and from the cranio-spinal cavity to extra-cranial LNs. With gadobutrol present within CSF, blood level concentrations of contrast agents were determined at various time point. The repeated MRI acquisitions made it possible to create clearance curves for one or more pixels, defined by ROIs. ROIs were placed within CSF compartments, brain and spinal cord tissue compartments, and extracranial LN tissue compartments. By means of MRI, we could create graphic curves illustrating clearance of substances (clearance illustrating curves) for defined ROIs built up of a defied number of pixels for each individual. For details of said clearance curves, see FIG. 7. The establishment of clearance curves was dependent on repeated MRI acquisitions over a long period.
Using MRI SUs, we created clearance illustrating curves, see FIG. 7, for the individual patients as well as for groups of individuals. Tables 2-4 illustrate various examples of parameter values of the clearance illustrating curves.
Table 2, as discussed with FIG. 2, illustrates how maximum increase in SUs varies between individuals and patient groups. Tables 3 and 4 compare such clearance curve parameters from two patient groups, namely iNPH and reference (i.e. control) patients, illustrating inter-individual differences and differences between patient groups. These patient groups represent no limitation of the invention as it may be used in various patient groups such as Alzheimer's and dementia in general, brain tumor (e.g. astrocytoma), multiple sclerosis and inflammatory brain disease, stroke (brain infarction or bleeds), sleep disturbances, neurodegenerative disease, CSF circulation disorders, traumatic brain injury, neurometabolic diseases, glaucoma, chronic headache and migraine, and in assessment of ageing in general.
Even though perfect match of ROIs of repeated images may be difficult to obtain, the second aspect of the invention is facilitated by that image acquisition parameters at repeated MRI acquisitions are kept fixed and thus standardized. […] Further, to make best possible alignments of pixels, methods for alignment of repeated MRI acquisitions need to be implemented. Methods for alignment of repeated MRI images belong to prior art. Aids to improve alignment may incorporate landmark locations such as the cranial vault, pineal gland, and ventricular system.
Each image acquisition lasted 6 minutes and 29 seconds.

[1] = Brain parenchyma: Frontal horn, Reference
[2] = Brain parenchyma: Frontal horn, iNPH
[3] = Brain parenchyma: Inferior frontal gyrus (IFG), Reference
[4] = Brain parenchyma: Inferior frontal gyrus (IFG), iNPH
[5] = Brain parenchyma: Pons, Reference
[6] = Brain parenchyma: Precentral gyrus, Reference
[7] = Brain parenchyma: Precentral gyrus, iNPH
[8] = Brain parenchyma: Thalamus, Reference
[9] = Brain parenchyma: Thalamus, iNPH
[10] = CSF space: 3rd Ventricle, Reference
[11] = CSF space: 4th Ventricle, Reference
[12] = CSF space: Foramen Magnum, Reference
[13] = CSF space: Foramen Magnum, iNPH
[14] = CSF space: Lateral Ventricle, Reference

Compound: O=C([O-])CN1CCN(CC(=O)[O-])CCN([C@H](CO)[C@H](O)CO)CCN(CC(=O)[O-])CC1.[Gd+3] (racemic) [gadobutrol]
- Enhancement coefficient (SU/min) [1]: 0.05 SU/min
- Max increase (SU) [1]: 7.9 ± 7.9 SU
- Time to peak [1]: 1109.8 ± 585.6 min
- Enhancement coefficient (SU/min) [2]: 0.04 SU/min
- Max increase (SU) [2]: 48.5 ± 32.8^b SU
- Time to peak [2]: 1349.3 ± 350.9 min
- Enhancement coefficient (SU/min) [3]: 0.02 SU/min
- Max increase (SU) [3]: 23.8 ± 20.9 SU
- Time to peak [3]: 1421.3 ± 53.1 min
- Enhancement coefficient (SU/min) [4]: 0.03 SU/min
- Max increase (SU) [4]: 39.1 ± 25.3 SU
- Time to peak [4]: 1358.0 min
- Enhancement coefficient (SU/min) [5]: 0.08 SU/min
- Time to peak [5]: 929.4 ± 676.9 min
- Enhancement coefficient (SU/min) (Brain parenchyma: Pons, iNPH): 0.03 SU/min
- Time to peak (Brain parenchyma: Pons, iNPH): 1090.0 ± 602.3 min
- Enhancement coefficient (SU/min) [6]: 0.03 SU/min
- Max increase (SU) [6]: 7.8 ± 11.2 SU
- Time to peak [6]: 742.8 ± 727.9 min
- Enhancement coefficient (SU/min) [7]: 0.04 SU/min
- Max increase (SU) [7]: 9.0 ± 8.3 SU
- Time to peak [7]: 900.0 ± 686.4 min
- Enhancement coefficient (SU/min) [8]: 0.01 SU/min
- Max increase (SU) [8]: 9.0 ± 7.1 SU
- Time to peak [8]: 1288.4 ± 386.3 min
- Enhancement coefficient (SU/min) [9]: 0.01 SU/min
- Max increase (SU) [9]: 13.0 ± 6.8 SU
- Time to peak [9]: 1261.7 ± 462.6 min
- Clearance coefficient (SU/min) [10]: −0.09 ± 0.08 SU/min
- Clearance time [10]: 1135.3 ± 74.2 min
- Enhancement coefficient (SU/min) [10]: 0.4 SU/min
- Max increase (SU) [10]: 115.1 ± 103.8 SU
- Max reduction (SU) [10]: −103.7 ± 83.9 SU
- Time to peak [10]: 253.8 ± 133.2 min
- Clearance coefficient (SU/min) (CSF space: 3rd Ventricle, iNPH): −0.10 ± 0.07 SU/min
- Clearance time (CSF space: 3rd Ventricle, iNPH): 1234.3 ± 116.2 min
- Enhancement coefficient (SU/min) (CSF space: 3rd Ventricle, iNPH): 1.4 SU/min
- Max increase (SU) (CSF space: 3rd Ventricle, iNPH): 243.6 ± 136.9^a SU
- Max reduction (SU) (CSF space: 3rd Ventricle, iNPH): −114.4 ± 76.8 SU
- Time to peak (CSF space: 3rd Ventricle, iNPH): 615.3 ± 587.5 min
- Clearance coefficient (SU/min) [11]: −0.18 ± 0.08 SU/min
- Clearance time [11]: 1287.6 ± 105.9 min
- Enhancement coefficient (SU/min) [11]: 6.3 SU/min
- Max increase (SU) [11]: 236.0 ± 142.9 SU
- Max reduction (SU) [11]: −232.6 ± 103.7 SU
- Time to peak [11]: 123.4 ± 98.1 min
- Clearance coefficient (SU/min) (CSF space: 4th Ventricle, iNPH): −0.19 ± 0.1 SU/min
- Clearance time (CSF space: 4th Ventricle, iNPH): 1234.4 ± 109.1 min
- Enhancement coefficient (SU/min) (CSF space: 4th Ventricle, iNPH): 5.6 SU/min
- Max increase (SU) (CSF space: 4th Ventricle, iNPH): 386.5 ± 138.2^a SU
- Max reduction (SU) (CSF space: 4th Ventricle, iNPH): −231.6 ± 128.1 SU
- Time to peak (CSF space: 4th Ventricle, iNPH): 286.7 ± 322.9 min
- Clearance coefficient (SU/min) [12]: −0.28 ± 0.08 SU/min
- Clearance time [12]: 1294.4 ± 154.5 min
- Enhancement coefficient (SU/min) [12]: 17.7 SU/min
- Max increase (SU) [12]: 426.0 ± 123.0 SU
- Max reduction (SU) [12]: −358.1 ± 117.7 SU
- Time to peak [12]: 129.4 ± 156.7 min
- Clearance coefficient (SU/min) [13]: −0.16 ± 0.07^b SU/min
- Clearance time [13]: 1264.3 ± 116.1 min
- Enhancement coefficient (SU/min) [13]: 5.9 SU/min
- Max increase (SU) [13]: 398.3 ± 108.0 SU
- Max reduction (SU) [13]: −206.7 ± 90.8^b SU
- Time to peak [13]: 174.5 ± 94.2 min
- Clearance coefficient (SU/min) [14]: −0.07 ± 0.01 SU/min
- Clearance time [14]: 1098.0 ± 12.5 min
- Enhancement coefficient (SU/min) [14]: 0.13 SU/min
- Max increase (SU) [14]: 42.5 ± 51.9 SU
- Max reduction (SU) [14]: −72.3 ± 11.9 SU
- Time to peak [14]: 402.6 ± 446.1 min
